The subject of data set [1] is Newcastle disease virus. The data set is described as follows: Ratio of amantadine hydrochloride MIC to compound MIC for Newcastle disease virus infected in chick embryo fibroblasts. The format is functional, avian paramyxovirus 1.
Data set [2] relates to Newcastle disease virus. The data set is described as follows: Antiviral activity against Newcastle disease virus infected in chick embryo fibroblasts assessed as suppression of virus multiplication to 1% by measuring hemagglutinating activity by tube assay method. The format is functional. The note with it: avian paramyxovirus 1.
The nature of data set [3]: Cytotoxicity against chick embryo fibroblasts after 24 hrs by microscopic analysis. The note with it: chicken. The format is cell-based, Gallus gallus, Fibroblast.

Structures are written as SMILES. Values after ≈ are worked out from the molar mass of the structure shown. Structures can show the parent of a compound that is named as a salt.

Three molecules from ChEMBL document CHEMBL3272246, “Biological active polycycloalkanes. 4. Phosphoric esters of trimethylenenorbornyl alcohols” (J Med Chem, 1977) can be followed below.

Turning to `O=P(O)(O[C@H]1C[C@H]2C[C@H]1[C@@H]1CCC[C@H]21)O[C@H]1C[C@H]2C[C@H]1[C@@H]1CCC[C@H]21`, in the data set on Newcastle disease virus [1], the Ratio worked out at 2. Also, the MIC in the data set on Newcastle disease virus [2] stood at 550 µM (≈ 202 µg/mL). The same molecule returned an MCC at 24 h in data set [3] of 550 µM.

Consider `NC12CC3CC(CC(C3)C1)C2` [AMANTADINE HYDROCHLORIDE], for which the MIC in the data set on Newcastle disease virus [2] turned out to be 1300 µM. The molecule further came in with an MCC at 24 h in data set [3] of 1300 µM.

Turning to `O=P(O[C@H]1C[C@H]2C[C@H]1[C@@H]1CCC[C@H]21)(O[C@H]1C[C@H]2C[C@H]1[C@@H]1CCC[C@H]21)O[C@H]1C[C@H]2C[C@H]1[C@@H]1CCC[C@H]21`, the MIC in the data set with Newcastle disease virus [2] was found to be 1000 µM (≈ 501 µg/mL). The MCC at 24 h in data set [3] amounted to 400 µM.
